In ChEMBL document CHEMBL5131421, “Cadinane Sesquiterpenoids and Their Glycosides from Alangium chinense That Inhibit Spontaneous Calcium Oscillations” (J Nat Prod, 2022):

How the values were obtained:
[1] = Neuroprotective activity in primary neocortical neuron (unknown origin) assessed as inhibition of 4-AP-induced spontaneous calcium channel oscillation amplitude measured after 15 min by Fluo-4AM dye based fluorescence assay; format: functional, cell-based
[2] = Neuroprotective activity in primary neocortical neuron (unknown origin) assessed as inhibition of 4-AP-induced spontaneous calcium channel oscillation frequency measured after 15 min by Fluo-4AM dye based fluorescence assay; format: functional, cell-based
[3] = Primary neocortical neuron, 0.25 h

| SMILES | IC50 [1, 3] [µM] | IC50 [2, 3] [µM] | IC50 ([1]; primary neocortical neuron) [µM] | IC50 ([2]; primary neocortical neuron) [µM] |
| --- | --- | --- | --- | --- |
| Cc1cc2c(cc1O)C(=O)[C@@](C)(c1ccc(O)c(O)c1)C=C2C(C)C | 5.77 | 2.58 | – | – |
| NC1=N[C@H](O)[C@H]2[C@H]3O[C@]4(O)O[C@@H]([C@@H](O)[C@@]2(N1)[C@@H]4O)[C@]3(O)CO [TETRODOTOXIN] | – | – | 0.00169 | 0.00493 |
| Cc1cc2c(cc1O)C(=O)[C@](C)(c1ccc(O)c(O)c1)C=C2C(C)C | 8.03 | 1.91 | – | – |
| Cc1cc2c(cc1O)[C@@](C)(c1ccc(O)c(O)c1)C(=O)C=C2C(C)C | 7.38 | 3.09 | – | – |
| Cc1cc2c(cc1O)C(=O)C(C)(c1ccc(O)c(O)c1)C=C2C(C)C (racemic) | 6.1 | 0.97 | – | – |
| Cc1cc2c(cc1O)C(C)(c1ccc(O)c(O)c1)C(=O)C=C2C(C)C (racemic) | 5.56 | 3.45 | – | – |
| Cc1cc2c(cc1O)[C@](C)(c1ccc(O)c(O)c1)C(=O)C=C2C(C)C | 5.36 | 2.05 | – | – |
